Experimental data: US9296741B2, “Bromodomain inhibitors” (priority 2012, dated 2016)
Like-named read-outs stand apart in the source and are kept apart here.

What was measured:
[1] = tested on: breast cancer cell line MX-1; test: MX-1 cell line proliferation assay; format: cell-based, human; details: MX-1 cells, 3-day proliferation, Cell Titer Glo, read-out: Cellular proliferation: EC50
[2] = Rat liver microsome stability assay; format: in vitro ADME; details: for half-life at 0.5 μM: rat liver microsomes (male Sprague-Dawley), 0.5 μM test compound, 0.25 mg/mL microsomal protein, pH 7.4, 37° C., read-out: Stability in rat liver microsomes (t1/2 in minutes)
[3] = Mouse liver microsome stability assay; format: in vitro ADME; details: microsomes, pH 7.4; for half-life at 0.5 μM: male, CD1, mouse
[4] = biological target: human BRD4 first bromodomain (BDI_K57-E168) (Homo sapiens (Human), UniProt O60885); test: TR-FRET bromodomain binding assay, BRD4 first bromodomain
[5] = biological target: human BRD4 second bromodomain (BDII_E352-M457) (Homo sapiens (Human), UniProt O60885); test: TR-FRET bromodomain binding assay, BRD4 second bromodomain
[6] = Human liver microsome stability assay; format: in vitro ADME; details: human, microsomes, pH 7.4; for half-life at 0.5 μM: both sexes

EC50 ([1]; Homo sapiens, MX1, 72 h) [nM]	half-life at 0.5 μM [2] [min]	half-life at 0.5 μM [3] [min]	Ki [4] [nM]	Ki [5] [nM]	half-life at 0.5 μM [6] [min]	EC50 [1] [nM]	Stability in rat liver microsomes (t1/2 in minutes) ([2]; rat, microsomes, pH 7.4) [min]	Stability in mouse liver microsomes (t1/2 in minutes) ([3]; mouse) [min]	Stability in human liver microsomes (t1/2 in minutes) [6] [min]	Structure (SMILES)
137	21	2	43.5	7.3	15					Cn1cc(-c2cc(C(=O)N3CCN(C(=O)c4ccco4)CC3)ccc2Oc2ccc(F)cc2F)c2cc[nH]c2c1=O [Example 134, 4-[2-(2,4-difluorophenoxy)-5-{[4-(furan-2-ylcarbonyl)piperazin-1-yl]carbonyl}phenyl]-6-methyl-1,6-dihydro-7H-pyrrolo[2,3-c]pyridin-7-one]
303	31	10	68.7	8.9	38					CCS(=O)(=O)N1CCN(C(=O)c2ccc(Oc3ccc(F)cc3F)c(-c3cn(C)c(=O)c4[nH]ccc34)c2)CC1 [Example 137, 4-[2-(2,4-difluorophenoxy)-5-{[4-(ethylsulfonyl)piperazin-1-yl]carbonyl}phenyl]-6-methyl-1,6-dihydro-7H-pyrrolo[2,3-c]pyridin-7-one]
125	110	49	5.4	15.2	> 120					CCS(=O)(=O)Nc1ccc(Oc2cncnc2)c(-c2cn(C)c(=O)c3[nH]ccc23)c1 [Example 141, N-[3-(6-methyl-7-oxo-6,7-dihydro-1H-pyrrolo[2,3-c]pyridin-4-yl)-4-(pyrimidin-5-yloxy)phenyl]ethanesulfonamide]
138	35	32	6.5	79.4	112					CCS(=O)(=O)Nc1ccc(OCc2ccnn2C)c(-c2cn(C)c(=O)c3[nH]ccc23)c1 [Example 142, N-{3-(6-methyl-7-oxo-6,7-dihydro-1H-pyrrolo[2,3-c]pyridin-4-yl)-4-[(1-methyl-1H-pyrazol-5-yl)methoxy]phenyl}ethanesulfonamide]
26.4	12	16	2.7	5.6	> 120					CCS(=O)(=O)Nc1ccc(OCC2CC2)c(-c2cn(C)c(=O)c3[nH]ccc23)c1 [Example 145, N-[4-(cyclopropylmethoxy)-3-(6-methyl-7-oxo-6,7-dihydro-1H-pyrrolo[2,3-c]pyridin-4-yl)phenyl]ethanesulfonamide]
740	2	6	205	152	58					Cn1nc(-c2cc(N)ccc2Oc2ccc(F)cc2F)c2cc[nH]c2c1=O [Example 148, 4-[5-amino-2-(2,4-difluorophenoxy)phenyl]-6-methyl-1,6-dihydro-7H-pyrrolo[2,3-d]pyridazin-7-one]
105	10	22	24.6	4.8	51					Cn1cc(-c2cc(S(C)(=O)=O)ccc2Oc2ccccc2Cl)c2cc[nH]c2c1=O [Example 152, 4-[2-(2-chlorophenoxy)-5-(methylsulfonyl)phenyl]-6-methyl-1,6-dihydro-7H-pyrrolo[2,3-c]pyridin-7-one]
93.3	8	11	22.8	8.2	33					Cn1cc(-c2cc(S(C)(=O)=O)ccc2Oc2cccc(Cl)c2)c2cc[nH]c2c1=O [Example 153, 4-[2-(3-chlorophenoxy)-5-(methylsulfonyl)phenyl]-6-methyl-1,6-dihydro-7H-pyrrolo[2,3-c]pyridin-7-one]
117	> 120	25	19.3	14.8	> 120					Cn1cc(-c2cc(S(C)(=O)=O)ccc2Oc2cccc(C#N)c2)c2cc[nH]c2c1=O [Example 155, 3-[2-(6-methyl-7-oxo-6,7-dihydro-1H-pyrrolo[2,3-c]pyridin-4-yl)-4-(methylsulfonyl)phenoxy]benzonitrile]
114	> 120	33	11.3	20.9	> 120					Cn1cc(-c2cc(S(C)(=O)=O)ccc2Oc2ccc(C#N)cc2)c2cc[nH]c2c1=O [Example 156, 4-[2-(6-methyl-7-oxo-6,7-dihydro-1H-pyrrolo[2,3-c]pyridin-4-yl)-4-(methylsulfonyl)phenoxy]benzonitrile]
150	53	12	30.8	21.8	27					Cn1cc(-c2cc(S(C)(=O)=O)ccc2Oc2cccc(C(F)(F)F)c2)c2cc[nH]c2c1=O [Example 157, 6-methyl-4-{5-(methylsulfonyl)-2-[3-(trifluoromethyl)phenoxy]phenyl}-1,6-dihydro-7H-pyrrolo[2,3-c]pyridin-7-one]
104	111	27	5	2.2	> 120					Cn1cc(-c2cc(S(C)(=O)=O)ccc2Oc2ccc(CC(N)=O)cc2)c2cc[nH]c2c1=O [Example 165, 2-{4-[2-(6-methyl-7-oxo-6,7-dihydro-1H-pyrrolo[2,3-c]pyridin-4-yl)-4-(methylsulfonyl)phenoxy]phenyl}acetamide]
332	113	27	22.8	94	> 120					CCS(=O)(=O)c1ccc(OC2CCN(C)CC2)c(-c2cn(C)c(=O)c3[nH]ccc23)c1 [Example 170, 4-{5-(ethylsulfonyl)-2-[(1-methylpiperidin-4-yl)oxy]phenyl}-6-methyl-1,6-dihydro-7H-pyrrolo[2,3-c]pyridin-7-one]
53.5	6	18	11.3	4.4	16					Cc1ccc(Oc2ccc(S(C)(=O)=O)cc2-c2cn(C)c(=O)c3[nH]ccc23)cc1 [Example 177, 6-methyl-4-[2-(4-methylphenoxy)-5-(methylsulfonyl)phenyl]-1,6-dihydro-7H-pyrrolo[2,3-c]pyridin-7-one]
36.2	7	10	10.5	3.2	27					COc1ccccc1Oc1ccc(S(C)(=O)=O)cc1-c1cn(C)c(=O)c2[nH]ccc12 [Example 178, 4-[2-(2-methoxyphenoxy)-5-(methylsulfonyl)phenyl]-6-methyl-1,6-dihydro-7H-pyrrolo[2,3-c]pyridin-7-one]
48.4	3	8	10.1	3.3	9					Cc1ccc(F)c(Oc2ccc(S(C)(=O)=O)cc2-c2cn(C)c(=O)c3[nH]ccc23)c1 [Example 186, 4-[2-(2-fluoro-5-methylphenoxy)-5-(methylsulfonyl)phenyl]-6-methyl-1,6-dihydro-7H-pyrrolo[2,3-c]pyridin-7-one]
135	117	> 120	10.2	40.7	56					Cn1cc(-c2cc(S(C)(=O)=O)ccc2NCC2CCOC2)c2cc[nH]c2c1=O (stereo not drawn) [Example 201, 6-methyl-4-{5-(methylsulfonyl)-2-[(tetrahydrofuran-3-ylmethyl)amino]phenyl}-1,6-dihydro-7H-pyrrolo[2,3-c]pyridin-7-one]
77.7	118	95	11.6	22.8	> 120					Cn1cc(-c2cc(S(C)(=O)=O)ccc2OCC2(F)COC2)c2cc[nH]c2c1=O [Example 206, 4-{2-[(3-fluorooxetan-3-yl)methoxy]-5-(methylsulfonyl)phenyl}-6-methyl-1,6-dihydro-7H-pyrrolo[2,3-c]pyridin-7-one]
23.5	23	37	5.6	6	88					CNS(=O)(=O)c1cnc(OCC2CC2)c(-c2cn(C)c(=O)c3[nH]ccc23)c1 [Example 208, 6-(cyclopropylmethoxy)-N-methyl-5-(6-methyl-7-oxo-6,7-dihydro-1H-pyrrolo[2,3-c]pyridin-4-yl)pyridine-3-sulfonamide]
36.8	105	116	4.6	3.6	> 120					Cn1cc(-c2cc(S(N)(=O)=O)cnc2NCC2CC2)c2cc[nH]c2c1=O [Example 209, 6-[(cyclopropylmethyl)amino]-5-(6-methyl-7-oxo-6,7-dihydro-1H-pyrrolo[2,3-c]pyridin-4-yl)pyridine-3-sulfonamide]
			1.4	2.1		11.9	48	63	65	CCS(=O)(=O)c1ccc(O[C@H]2CC[C@@](C)(O)CC2)c(-c2cn(C)c(=O)c3[nH]ccc23)c1 [Example 211, 4-{5-(ethylsulfonyl)-2-[(cis-4-hydroxy-4-methylcyclohexyl)oxy]phenyl}-6-methyl-1,6-dihydro-7H-pyrrolo[2,3-c]pyridin-7-one]
